The values that follow come from US8940739B2, “Compound of a reverse-turn mimetic and a production method and use therefor” (JW Pharmaceutical Corporation, priority 2010, dated 2015).

Molecules are shown by their SMILES. ≈ marks a conversion by molar mass, not a printed value.

Series [1] deals with MV-4-11 (human, Acute Myeloid Leukemia cell line) cells. Put plainly: Cell growth inhibition assay, GI50 of MV-4-11. The series is classed as cell-based. The following applies: Homo sapiens, MV4-11, 72 h, MV-4-11 cells. Summed up:
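MV-4-11 AML cells (5×10^4/well, IMDM with 10% FBS) treated in duplicate with serially diluted compounds for 72 hours at 37 °C. Viability read as absorbance at 490 nm after CellTiter 96 Aqueous One (MTS) addition; GI50 calculated from the concentration-response.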

The nature of series [2]: Solubility in physiological saline. The series is classed as physicochemical. The following applies: saline or isotonic, thermodynamic from solid, 10 mg in 0.25 ml. The method, then:
2) Evaluation of Solubility of Compound E-5
Compound E-5, Compound E-5•HCl, and Compound E-5•H2SO4 were respectively weighed to 10 mg, and 0.25 ml of physiological saline was added, and they were vortex mixed. The supernatant was filtered with a 0.22 μm filter and quantitatively analyzed by HPLC.

Series [3] can be described thus: Blood drug concentration upon intravenous administration. It is filed as in vivo. The following applies: SD rat, 12.5 mg/kg. The method, then: Compound E-5 was intravenously injected in 12.5 mg/kg to SD rat. 5, 15, 30, […], 120, 240, 1140 minutes after injection, the blood was taken and the drug concentration in the blood was quantitatively analyzed using an analyzer HPLC/MS/MS.

In series [4] the target is cDNA-expressed human hepatic CYP3A4 (Homo sapiens (Human), UniProt P08684). Briefly: Measurement of CYP (IC50 of P450 CYP3A4), BFC substrate. It is filed as in vitro ADME. The following applies: 20 minutes. Summed up: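 cDNA-expressed human CYP3A4 supersomes in 0.1M potassium phosphate pH 7.4 with 8.3 mM MgCl2, 1.67 mM EDTA and 0.25 mM NADPH; compounds in acetonitrile (<1% final). Reaction started with 30 µM BFC, 20 min at 37. 7-Hydroxy-4-trifluoromethyl-coumarin read by fluorescence (ex 409/em 530 nm).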
Sequence of cDNA-expressed human hepatic CYP3A4 (P08684 whole entry): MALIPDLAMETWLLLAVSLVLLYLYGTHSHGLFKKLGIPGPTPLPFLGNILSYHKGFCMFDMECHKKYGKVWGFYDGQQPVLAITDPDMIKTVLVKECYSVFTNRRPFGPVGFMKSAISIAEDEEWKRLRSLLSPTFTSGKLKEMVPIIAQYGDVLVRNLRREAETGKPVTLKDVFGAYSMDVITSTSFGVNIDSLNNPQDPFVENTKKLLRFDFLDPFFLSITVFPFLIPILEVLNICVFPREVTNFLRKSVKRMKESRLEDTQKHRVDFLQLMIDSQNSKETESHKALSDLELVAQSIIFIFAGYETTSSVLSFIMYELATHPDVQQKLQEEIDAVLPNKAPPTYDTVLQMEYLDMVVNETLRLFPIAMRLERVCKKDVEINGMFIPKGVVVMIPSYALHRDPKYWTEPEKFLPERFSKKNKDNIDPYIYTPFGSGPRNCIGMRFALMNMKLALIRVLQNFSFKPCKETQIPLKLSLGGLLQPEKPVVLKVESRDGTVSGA

Turning to `C=CCN1CC(=O)N2[C@@H](Cc3ccc(O)cc3)C(=O)N(Cc3cccc4c(C(=O)N5CCN(CC)CC5)cn(C)c34)C[C@@H]2N1C(=O)NCc1ccccc1` [Compound E-5, (6S,9aS)-2-allyl-N-benzyl-8-((3-(4-ethylpiperazine-1-carbonyl)-1-methyl-1H-indol-7-yl)methyl)-6-(4-hydroxybenzyl)-4,7-dioxooctahydro-1H-pyrazino[2,1-c][1,2,4]-triazine-1-carboxamide], the GI50 (usually the concentration at which growth is held to half of that of the control) in series [1] turned out to be 11.6 nM. The amount in solution in series [2] (solubility) came to 68 µg/mL (≈ 92.8 µM). In series [3], the AUC – broadly, the area under the concentration-time curve, a measure of exposure – was 4530 ng·h/mL. The half-life (usually the time needed for the level to fall by half in the phase considered) in series [3] (read-out: Half-life (t ½, hr) (converted)) was 1.59 h. Besides, in series [4], half-maximal inhibition (IC50) was put at 8.04 µM.
